For one assay, the system named is P. aeruginosa 6186. Nature of the assay: microbe, parasite or virus in culture. The format is cell-based, Pseudomonas aeruginosa. The conditions noted are these: P. aeruginosa 6186, 24-h incubation, mean of 3 replicates from 2 independent experiments. How it is done:
(§1) Strains were obtained from American Type Culture Collection (ATCC, Manassas, VA) or the clinical isolate collection at Trideum Biosciences (Frederick, MD, USA). Bioluminescence strains of P. aeruginosa 19660, transfected with the Xen5 luciferase gene, and S. aureus ATCC® 49525™ (Wright), transfected with the Xen36 luciferase gene, were obtained from Perkin Elmer (Hopkinton, MA).
(§2) A single colony was aseptically picked from an agar overlay and released in 25–30 mL of pre-warmed trypticase soy broth in a culture flask. Each culture was incubated overnight in a 37°C incubator. […] Pathogen growth was measured by absorbance at 600 nm. Four replicas were included for each test agent concentration. […]

Another assay deals with P. aeruginosa ATCC 19660. Nature of the assay: microbe, parasite or virus in culture. The format is cell-based, Pseudomonas aeruginosa. The conditions noted are these: P. aeruginosa ATCC 19660, 24-h incubation, mean of 3 replicates from 2 independent experiments. How it is done:
as §1, §2

Assay [1] deals with P. aeruginosa ATCC 27853. The assay can be described thus: microbe, parasite or virus in culture. The format is cell-based, Pseudomonas aeruginosa. The conditions noted are these: P. aeruginosa ATCC 27853, 24-h incubation, mean of 3 replicates from 2 independent experiments. The protocol: as §1, §2
Another assay has as its system K. pneumonia 6069. Nature of the assay: microbe, parasite or virus in culture. To be noted: K. pneumonia 6069, 24-h incubation, mean of 3 replicates from 2 independent experiments. The format is cell-based, Klebsiella pneumoniae. The protocol: as §1, §2
Another assay relates to K. pneumonia ATCC 10031. The assay can be described thus: microbe, parasite or virus in culture. The format is cell-based, Klebsiella pneumoniae. The conditions noted are these: K. pneumonia ATCC 10031, 24-h incubation, mean of 3 replicates from 2 independent experiments. How it is done:
as §1, §2

The test system of a further assay is K. pneumonia 6066. Nature of the assay: microbe, parasite or virus in culture. The format is cell-based, Klebsiella pneumoniae. To be noted: K. pneumonia 6066, 24-h incubation, mean of 3 replicates from 2 independent experiments. The protocol:
as §1, §2

For the next assay, the system named is MRSA ATCC 33592. The assay can be described thus: microbe, parasite or virus in culture. The format is cell-based, Staphylococcus aureus. The conditions noted are these: MRSA ATCC 33592, 24-h incubation, mean of 3 replicates from 2 independent experiments. The protocol: as §1, §2
The next assay has as its system S. aureus 6061. The assay can be described thus: microbe, parasite or virus in culture. The format is cell-based, Staphylococcus aureus. To be noted: S. aureus 6061, 24-h incubation, mean of 3 replicates from 2 independent experiments. The protocol: as §1, §2
In another assay the test system is MRSA 6313. Nature of the assay: microbe, parasite or virus in culture. The format is cell-based, Staphylococcus aureus. To be noted: MRSA 6313, 24-h incubation, mean of 3 replicates from 2 independent experiments. How it is done: as §1, §2
In a further assay the test system is MRSA 6381. The assay can be described thus: microbe, parasite or virus in culture. To be noted: MRSA 6381, 24-h incubation, mean of 3 replicates from 2 independent experiments. The format is cell-based, Staphylococcus aureus. How it is done:
as §1, §2

Another assay concerns S. aureus B-767. Nature of the assay: microbe, parasite or virus in culture. The format is cell-based, Staphylococcus aureus. To be noted: S. aureus B-767, 24-h incubation, mean of 3 replicates from 2 independent experiments. How it is done:
as §1, §2

In another assay the test system is A. baumannii 6838. Nature of the assay: microbe, parasite or virus in culture. To be noted: A. baumannii 6838, 24-h incubation, mean of 3 replicates from 2 independent experiments. The format is cell-based, Acinetobacter baumannii. How it is done: as §1, §2
In the next assay the test system is A. baumannii 6043. Nature of the assay: microbe, parasite or virus in culture. The format is cell-based, Acinetobacter baumannii. To be noted: A. baumannii 6043, 24-h incubation, mean of 3 replicates from 2 independent experiments. How it is done: as §1, §2
Another assay relates to E. cloacae 6053. Nature of the assay: microbe, parasite or virus in culture. The format is cell-based. The conditions noted are these: E. cloacae 6053, 24-h incubation, mean of 3 replicates from 2 independent experiments. How it is done: as §1, §2
Another assay deals with E. cloacae 6054. The assay can be described thus: microbe, parasite or virus in culture. The format is cell-based. The conditions noted are these: E. cloacae 6054, 24-h incubation, mean of 3 replicates from 2 independent experiments. The protocol: as §1, §2
The next assay concerns S. epidermis ATCC 51625. Nature of the assay: microbe, parasite or virus in culture. The format is cell-based, S. epidermidis. The conditions noted are these: S. epidermis ATCC 51625, 24-h incubation, mean of 3 replicates from 2 independent experiments. How it is done: as §1, §2
Assay [2] deals with bioluminescent P. aeruginosa 19660. Nature of the assay: Bioluminescence time-kill assay. The format is cell-based, Pseudomonas aeruginosa. The conditions noted are these: antibiotics after 30 min incubation, triplicates, two independent experiments. How it is done:
as §1
(§3) Non-invasive real-time evaluation of viability, mammalian, and bacterial cells, was performed using bioluminescent human keratinocytes (HaCaT, AddexBio, San Diego, CA) and murine L929 fibroblast cells (ATCC, Manassas, VA). The bioluminescent variants were constructed by transfection with a luciferase gene (RediFect Red-Fluc-Puromycin, Catalog #CL596002) (Hamblin et al., [2003]). […] Each concentration was performed in triplicate. Bioluminescence imaging was performed at pre-specified times (0, 15, and 30 min and 1, 3, 5, 8, and 24 h) and compared to concurrently run vehicle-controls. The 96-well plate was positioned on the stage (12.5-cm field of view) within the in vivo Imaging System (IVIS) imaging system (Caliper Life Sciences, Inc., Hopkinton, MA, USA), with an open emission filter, binning of 4, and f-stop 1, and a 1-min exposure time. The resultant photons emitted from the live cells were quantified using Living Image® software (version 4.3, Caliper Life Sciences, Inc.). […]

Assay [3] deals with bioluminescent S. aureus 49525. The assay can be described thus: Bioluminescence time-kill assay. The format is cell-based, Staphylococcus aureus. To be noted: antibiotics after 30 min incubation, triplicates, two independent experiments. The protocol: as §1, §3
A further assay deals with A. baumannii ATCC 17978. The assay can be described thus: microbe, parasite or virus in culture. The format is cell-based, Acinetobacter baumannii. The conditions noted are these: Acinetobacter baumannii, ATCC17978; A. baumannii ATCC 17978; 24-h incubation; mean of 3 replicates from 2 independent experiments; read-out: Minimum Inhibitory Concentration (MIC). The protocol:
as §1, §2

The next assay relates to S. aureus ATCC 29213. Nature of the assay: microbe, parasite or virus in culture. To be noted: for MIC: Staphylococcus aureus. An excerpt: (§4) The development of resistance was confirmed if the microorganism started growing at continuously higher concentrations. […] Evaluations were done in duplicate.
For assay [4], the system named is P. aeruginosa ATCC 27853. Nature of the assay: Antibiotic resistance profiling, 30 serial passages. The format is cell-based, Pseudomonas aeruginosa. The conditions noted are these: for MIC: Pseudomonas aeruginosa.
From the text: as §4

[5] abbreviates: Klebsiella pneumoniae, read-out: Minimum Inhibitory Concentration (MIC).
Where [6] appears, read: Staphylococcus aureus, read-out: Minimum Inhibitory Concentration (MIC).
Where [7] appears, read: Acinetobacter baumannii, read-out: Minimum Inhibitory Concentration (MIC).
Setting [8] is: Enterobacter cloacae, read-out: Minimum Inhibitory Concentration (MIC).

In brackets after ≈: the same amount, converted by molar mass. Read-outs that look alike come from different tables or passages of the source.

As to `CC[C@H](C)[C@H](NC(=O)[C@H](CCCCN)NC(=O)[C@H](CCC(=O)O)NC(=O)[C@H](CCCCN)NC(=O)[C@H](CO)NC(=O)[C@H](CCCCN)NC(=O)[C@H](CCCNC(=N)N)NC(=O)[C@H](Cc1ccccc1)NC(=O)[C@H](Cc1ccccc1)NC(=O)[C@H](CC(=O)O)NC(=O)CNC(=O)[C@H](CC(C)C)NC(=O)[C@@H](N)CC(C)C)C(=O)NCC(=O)N[C@@H](CCCCN)C(=O)N[C@@H](CCC(=O)O)C(=O)N[C@@H](Cc1ccccc1)C(=O)N[C@@H](CCCCN)C(=O)N[C@@H](CCCNC(=N)N)C(=O)N[C@H](C(=O)N[C@H](C(=O)N[C@@H](CCC(N)=O)C(=O)N[C@@H](CCCNC(=N)N)C(=O)N[C@H](C(=O)N[C@@H](CCCCN)C(=O)N[C@@H](CC(=O)O)C(=O)N[C@@H](Cc1ccccc1)C(=O)N[C@@H](CC(C)C)C(=O)N[C@@H](CCCNC(=N)N)C(=O)N[C@@H](CC(N)=O)C(=O)N[C@@H](CC(C)C)C(=O)N[C@H](C(=O)N1CCC[C@H]1C(=O)N[C@@H](CCCNC(=N)N)C(=O)N[C@H](C(=O)N[C@@H](CCC(=O)O)C(=O)N[C@@H](CO)C(=O)O)[C@@H](C)O)C(C)C)[C@@H](C)CC)C(C)C)[C@@H](C)CC` [LL-37], the “Minimum Inhibitory Concentration (MIC)” value in the assay with P. aeruginosa 6186 was >28.5 [128] μM; with P. aeruginosa ATCC 19660 it was 28.5 [128] μM; with P. aeruginosa ATCC 27853 [1] it was 28.5 [128] μM; in the assay with K. pneumonia 6069, >28.5 [128] μM; with K. pneumonia ATCC 10031, >28.5 [128] μM; with K. pneumonia 6066 it was >28.5 [128] μM. In addition, the “Minimum Inhibitory Concentration (MIC)” value in the assay with MRSA ATCC 33592, in the assay on S. aureus 6061, in the assay with MRSA 6313, with MRSA 6381, in the assay with S. aureus B-767 and with A. baumannii 6838 was >28.5 [128] μM in each case. The “Minimum Inhibitory Concentration (MIC)” value is 14.2 [64] μM with A. baumannii 6043, >28.5 [128] μM with E. cloacae 6053, >28.5 [128] μM with E. cloacae 6054 and >28.5 [128] μM with S. epidermis ATCC 51625.
Turning to `NC[C@H]1O[C@H](O[C@H]2[C@H](O)[C@@H](O[C@H]3O[C@H](CO)[C@@H](O)[C@H](N)[C@H]3O)[C@H](N)C[C@@H]2N)[C@H](N)C[C@@H]1O` [Tobramycin, tobramycin], the MIC was above 274 µM with P. aeruginosa 6186 (Pseudomonas aeruginosa, read-out: Minimum Inhibitory Concentration (MIC)); above 274 µM with P. aeruginosa ATCC 19660 (Pseudomonas aeruginosa, ATCC19660, read-out: Minimum Inhibitory Concentration (MIC)); 4.3 µM (≈ 2.01 µg/mL) in the assay on P. aeruginosa ATCC 27853 [1] (Pseudomonas aeruginosa, ATCC27853, read-out: Minimum Inhibitory Concentration (MIC)); 4.3 µM (≈ 2.01 µg/mL) with K. pneumonia 6069 (setting [5]); 4.3 µM (≈ 2.01 µg/mL) in the assay on K. pneumonia ATCC 10031 (Klebsiella pneumoniae, ATCC10031, read-out: Minimum Inhibitory Concentration (MIC)); 8.6 µM (≈ 4.02 µg/mL) with K. pneumonia 6066 (setting [5]). The MIC is 137 µM (≈ 64.1 µg/mL) in the assay on MRSA ATCC 33592 (setting [6]); 8.6 µM (≈ 4.02 µg/mL) in the assay on S. aureus 6061 (setting [6]); above 274 µM with MRSA 6313 (setting [6]); 274 µM (≈ 128 µg/mL) in the assay on MRSA 6381 (setting [6]); above 274 µM with S. aureus B-767 (Staphylococcus aureus, B767, read-out: Minimum Inhibitory Concentration (MIC)); 4.3 µM (≈ 2.01 µg/mL) in the assay on A. baumannii ATCC 17978. The MIC came to 4.3 µM (≈ 2.01 µg/mL) with A. baumannii 6838 (setting [7]); 68.5 µM (≈ 32 µg/mL) in the assay with A. baumannii 6043 (setting [7]); 68.5 µM (≈ 32 µg/mL) with E. cloacae 6053 (setting [8]); 137 µM (≈ 64.1 µg/mL) in the assay on E. cloacae 6054 (setting [8]); 4.3 µM (≈ 2.01 µg/mL) in the assay on S. epidermis ATCC 51625 (Staphylococcus epidermidis, ATCC51625, read-out: Minimum Inhibitory Concentration (MIC)). In addition, the “Bactericidal activity in time-kill assay” value in assay [2] and in [3] was “no trace of antibacterial activity” throughout.
As to `CCC[C@@H]1C[C@@H](C(=O)N[C@@H]([C@H]2O[C@H](SC)[C@H](O)[C@@H](O)[C@H]2O)[C@H](C)Cl)N(C)C1` [clindamycin], the “Fold increase in MIC value, Passage #30 vs #0” value in the assay with S. aureus ATCC 29213 (S. aureus ATCC 29213) was found to be 256 fold. Besides, the MIC was found to be 0.125 µg/mL (≈ 0.294 µM) in the assay with S. aureus ATCC 29213 (ATCC29213, read-out: MIC on Passage #0 and Passage #1); 32 µg/mL (≈ 75.3 µM) in the assay on S. aureus ATCC 29213 (ATCC29213, read-out: MIC on Passage #30).
For `CNC(C)C1CCC(N)C(OC2C(N)CC(N)C(OC3OCC(C)(O)C(NC)C3O)C2O)O1` (centres unmarked) [gentamicin], the “Fold increase in MIC value, Passage #30 vs #0” value with P. aeruginosa ATCC 27853 [4] (P. aeruginosa ATCC 27853) is given as 4,096 fold. Also, the MIC in the assay with P. aeruginosa ATCC 27853 [4] (ATCC27853, read-out: MIC during Passage #0 and Passage #1) turned out to be 0.125 µg/mL (≈ 0.262 µM); in the assay on P. aeruginosa ATCC 27853 [4] (ATCC27853, read-out: MIC during Passage #30), 512 µg/mL (≈ 1070 µM).
